In patent publication US11072588B2, “Barbituric acid derivatives comprising cationic and lipophilic groups” (UNIVERSITETET I TROMSØ—NORGES ARKTISKE UNIVERSITET, priority 2017, dated 2021):
In brackets after ≈: the same amount, converted by molar mass. Like-named read-outs stand apart in the source and are kept apart here.

Key:
K. pneumoniae 50667959 = test: MIC, multi-resistant clinical isolate; format: cell-based, Klebsiella pneumoniae; conditions: for MIC: Klebsiella pneumoniae, read-out: Antimicrobial activity (MIC); for selectivity index (EC50/MIC): RBC EC50 / MIC
Experimental: (§1) Working solutions of the test derivatives were prepared with up to 100% DMSO and stored at −20° C. If necessary, the solutions were heated to 40-80° C. before testing to facilitate complete dissolution. Double-distilled water was used in all dilutions prepared. […] A microdilution susceptibility test was used for MIC determination according to Clinical and Laboratory Standards Institute, “Methods for Dilution Antimicrobial Sisceptibility Tests for Bacteria That Graw Aerobically”, Approved Standard M07-A9, edition 2012, with modifications as described by Igumnova et al (Bioorg Med Chem, 2016, 24 (22), 5884-5894).
(§2) Briefly, the bacterial inoculum was adjusted to approximately 2.5-3×10^4 cells/mL in Mueller-Hinton broth (MHB, Difco Laboratories, USA), and incubated in a ratio of 1:1 with test derivatives in polystyrene 96-well flat-bottom microplates (NUNC, Roskilde, Denmark). Positive growth control (without test derivatives) and negative control (without bacteria) were included. The reference antibiotic was oxytetracycline hydrochloride (Sigma Aldrich, Saint Louis, Mo., USA). The microplates were incubated in an EnVision microplate reader (Perkin-Elmer, Turku, Finland) placed in an incubator set to 35° C. for 48 h. The MIC value was defined as the lowest concentration of derivative resulting in no bacterial growth as determined by OD600 measurement. All derivatives were tested in three parallels.
(§3) The MIC was determined as explained above with some exceptions; working solutions of test derivatives were prepared from concentrated DMSO stocks stored at room temperature, the density of the bacterial inoculum was increased 40× to 1-1.2×10^6 cells/mL, enterococci were incubated in Brain Heart Infusion broth (BHIB, Difco Laboratories, USA), the microplates were incubated for 24 h, and the derivatives were tested in four parallels.

K. pneumoniae 50531633 = test: MIC, multi-resistant clinical isolate; format: cell-based, Klebsiella pneumoniae; conditions: K. pneumoniae 50531633, resistant to colistin; for MIC: Klebsiella pneumoniae, 24 h, read-out: Antimicrobial activity (MIC); for selectivity index (EC50/MIC): RBC EC50 / MIC
Experimental: as §1, §2, §3

K. pneumoniae K47-25 = test: MIC, multi-resistant clinical isolate; format: cell-based, Klebsiella pneumoniae; conditions: for MIC: Klebsiella pneumoniae, K4725, 24 h, read-out: Antimicrobial activity (MIC)
Experimental: as §1, §2, §3

K. pneumoniae 50625602 = test: MIC, multi-resistant clinical isolate; format: cell-based, Klebsiella pneumoniae; conditions: for MIC: Klebsiella pneumoniae, read-out: Antimicrobial activity (MIC); for selectivity index (EC50/MIC): RBC EC50 / MIC
Experimental: as §1, §2, §3

P. aeruginosa 50692172 = test: MIC, multi-resistant clinical isolate; format: cell-based, Pseudomonas aeruginosa; conditions: for MIC: Pseudomonas aeruginosa, read-out: Antimicrobial activity (MIC); for selectivity index (EC50/MIC): RBC EC50 / MIC
P. aeruginosa K34-73 = test: MIC, multi-resistant clinical isolate; format: cell-based, Pseudomonas aeruginosa; conditions: for MIC: Pseudomonas aeruginosa; for selectivity index (EC50/MIC): RBC EC50 / MIC
[1] = Determination of haemolytic activity; format: cell-based; conditions: human red blood cells (washed, from heparinized fresh blood); human RBCs, 1 h, 37° C.; read-out: RBC: haemolytic activity against human RBCs (EC50)
Experimental: Hemolysis was determined using a heparinized fraction (1000 IU/mL) of freshly drawn blood. Blood collected in EDTA containing test tubes (Vacutest®, KIMA, Arzergrande, Italy) was used for determination of the hematocrit (hct). The heparinized blood was washed 3× with pre-warmed PBS and adjusted to a final hct of 4%. Derivatives in DMSO (50 mM) were added to a 96-well polypropylene V-bottom plate (NUNC, Fisher Scientific, Oslo, Norway) and serially diluted. The test concentration range was 500-4 μM with DMSO contents ≤1%. A solution of 1% triton X-100 was used as positive control for 100% hemolysis. As negative control a solution of 1% DMSO in PBS buffer was included. No signs of DMSO toxicity were detected. RBCs (1% v/v final concentration) were added to the well plate and incubated at 37° C. and 800 rpm for 1 h. After centrifugation (5 min, 3000 g), 100 μL of each well were transferred to a 96-well flat bottom plate and absorbance was measured at 545 nm with a microplate reader (VersaMax™, Molecular Devices, Sunnyvale, Calif., USA). The percentage of hemolysis was calculated as the ratio of the absorbance in the derivative-treated and surfactant treated samples, corrected for the PBS background. Three independent experiments were performed and EC50 values are presented as averages.

[2] = tested on: Staphylococcus aureus ATCC 9144; test: MIC assay, antibiotic susceptible reference strain; format: cell-based; conditions: Staphylococcus aureus, ATCC9144, read-out: Antimicrobial activity (MIC) S. a
Experimental: as §1, §2

[3] = tested on: Pseudomonas aeruginosa PA01, DSM 19880 (ATCC 15692); test: MIC assay, antibiotic susceptible reference strain; format: cell-based; conditions: Pseudomonas aeruginosa, read-out: Antimicrobial activity (MIC) P. a
Experimental: as §1, §2

[4] = tested on: Corynebacterium glutamicum ATCC 13032; test: MIC assay, antibiotic susceptible reference strain; format: cell-based; conditions: Corynebacterium glutamicum, ATCC13032, read-out: Antimicrobial activity (MIC) C. g
Experimental: as §1, §2

[5] = tested on: Escherichia coli ATCC 25922; test: MIC assay, antibiotic susceptible reference strain; format: cell-based; conditions: Escherichia coli, ATCC25922, read-out: Antimicrobial activity (MIC) E. c
Experimental: as §1, §2

A. baumanii K44-35 = test: MIC, multi-resistant clinical isolate; format: cell-based, Acinetobacter baumannii; conditions: for MIC: Acinetobacter baumannii, K4435, read-out: Antimicrobial activity (MIC); for selectivity index (EC50/MIC): RBC EC50 / MIC
Experimental: as §1, §2, §3

A. baumanii K47-42 = test: MIC, multi-resistant clinical isolate; format: cell-based, Acinetobacter baumannii; conditions: for MIC: Acinetobacter baumannii, K4742, read-out: Antimicrobial activity (MIC); for selectivity index (EC50/MIC): RBC EC50 / MIC
Experimental: as §1, §2, §3

A. baumanii K55-13 = test: MIC, multi-resistant clinical isolate; format: cell-based, Acinetobacter baumannii; conditions: for MIC: Acinetobacter baumannii, K5513, read-out: Antimicrobial activity (MIC); for selectivity index (EC50/MIC): RBC EC50 / MIC
Experimental: as §1, §2, §3

A. baumanii K12-21 = test: MIC, multi-resistant clinical isolate; format: cell-based, Acinetobacter baumannii; conditions: for MIC: Acinetobacter baumannii, K1221, read-out: Antimicrobial activity (MIC); for selectivity index (EC50/MIC): RBC EC50 / MIC
Experimental: as §1, §2, §3

A. baumanii K63-58 = test: MIC, multi-resistant clinical isolate; format: cell-based, Acinetobacter baumannii; conditions: A. baumanii K63-58, resistant to colistin; for MIC: Acinetobacter baumannii, K6358, 24 h, read-out: Antimicrobial activity (MIC); for selectivity index (EC50/MIC): RBC EC50 / MIC
Experimental: as §1, §2, §3

[6] = K3473, read-out: Antimicrobial activity (MIC)

| Structure (SMILES) | MIC (K. pneumoniae 50667959) [µg/mL] | MIC (K. pneumoniae 50531633) [µg/mL] | selectivity index (EC50/MIC) (K. pneumoniae 50531633) | MIC (K. pneumoniae 50625602) [µg/mL] | MIC (P. aeruginosa 50692172) [µg/mL] | selectivity index (EC50/MIC) (P. aeruginosa 50692172) | selectivity index (EC50/MIC) (P. aeruginosa K34-73; P. aeruginosa K34-73) | EC50 at 1 h [1] [µg/mL] | MIC [2] [µg/mL] | MIC [3] [µg/mL] | MIC [4] [µg/mL] | MIC [5] [µg/mL] | MIC (A. baumanii K44-35) [µg/mL] | selectivity index (EC50/MIC) (A. baumanii K44-35) | MIC (A. baumanii K47-42) [µg/mL] | selectivity index (EC50/MIC) (A. baumanii K47-42) | MIC (A. baumanii K55-13) [µg/mL] | selectivity index (EC50/MIC) (A. baumanii K55-13) | MIC (A. baumanii K12-21) [µg/mL] | selectivity index (EC50/MIC) (A. baumanii K12-21) | further results |
| --- | --- | --- | --- | --- | --- | --- | --- | --- | --- | --- | --- | --- | --- | --- | --- | --- | --- | --- | --- | --- | --- |
| NCCCCN1C(=O)N(CCCCN)C(=O)C(Cc2ccc3ccccc3c2)(Cc2ccc3ccccc3c2)C1=O [7(iv), 1,3-bis(4-aminobutyl)-5,5-bis(naphtalen-2-yl-methyl)-pyrimidin-2,4,6(1H,3H,5H)-trione] | > 32 | 32 (≈ 58.1 µM) | (8) | > 32 | 32 (≈ 58.1 µM) | (8) | (8) | 243 (≈ 441 µM) | 8 (≈ 14.5 µM) | 16 (≈ 29.1 µM) | 1 (≈ 1.82 µM) | 16 (≈ 29.1 µM) | 32 (≈ 58.1 µM) | (8) | 32 (≈ 58.1 µM) | (8) | 32 (≈ 58.1 µM) | (8) | 32 (≈ 58.1 µM) | (8) | MIC (K. pneumoniae K47-25): > 32 µg/mL; MIC (P. aeruginosa K34-73; [6]): 32 µg/mL (≈ 58.1 µM); MIC (A. baumanii K63-58): 16 µg/mL (≈ 29.1 µM); selectivity index (EC50/MIC) (A. baumanii K63-58): (15) |
| NCCCCN1C(=O)N(CCCCN)C(=O)C(Cc2ccc(F)c3ccccc23)(Cc2ccc(F)c3ccccc23)C1=O [7(v), 1,3-bis(4-aminobutyl)-5,5-bis((4-fluoronaphtalen-1-yl)methyl)pyrimidin-2,4,6(1H,3H,5H)-trione] | 32 (≈ 54.5 µM) | 16 (≈ 27.3 µM) | (10) | 32 (≈ 54.5 µM) | 16 (≈ 27.3 µM) | (10) | (5) | 160 (≈ 273 µM) | 4 (≈ 6.82 µM) | 8 (≈ 13.6 µM) | 1 (≈ 1.7 µM) | 16 (≈ 27.3 µM) | 32 (≈ 54.5 µM) | (5) | 32 (≈ 54.5 µM) | (5) | 32 (≈ 54.5 µM) | (5) | 32 (≈ 54.5 µM) | (5) | selectivity index (EC50/MIC) (K. pneumoniae 50667959): (5); MIC (K. pneumoniae K47-25): > 32 µg/mL; selectivity index (EC50/MIC) (K. pneumoniae 50625602): (5); MIC (P. aeruginosa K34-73; [6]): 32 µg/mL (≈ 54.5 µM); MIC (A. baumanii K63-58): 16 µg/mL (≈ 27.3 µM); selectivity index (EC50/MIC) (A. baumanii K63-58): (10) |
| NCCCCN1C(=O)N(CCCCN)C(=O)C(Cc2cc(C(F)(F)F)cc(C(F)(F)F)c2)(Cc2cc(C(F)(F)F)cc(C(F)(F)F)c2)C1=O [7(vi)] | 32 (≈ 44.3 µM) | 32 (≈ 44.3 µM) | (6) | 32 (≈ 44.3 µM) | 32 (≈ 44.3 µM) | (6) | (6) | 183 (≈ 253 µM) | 8 (≈ 11.1 µM) | 8 (≈ 11.1 µM) | 1 (≈ 1.38 µM) | 8 (≈ 11.1 µM) | 32 (≈ 44.3 µM) | (6) | 32 (≈ 44.3 µM) | (6) | 32 (≈ 44.3 µM) | (6) | 16 (≈ 22.1 µM) | (11) | selectivity index (EC50/MIC) (K. pneumoniae 50667959): (6); MIC (K. pneumoniae K47-25): > 32 µg/mL; selectivity index (EC50/MIC) (K. pneumoniae 50625602): (6); MIC (P. aeruginosa K34-73; [6]): 32 µg/mL (≈ 44.3 µM); MIC (A. baumanii K63-58): 32 µg/mL (≈ 44.3 µM); selectivity index (EC50/MIC) (A. baumanii K63-58): (6) |
| N=C(N)NCCCCN1C(=O)N(CCCCNC(=N)N)C(=O)C(Cc2ccc3ccccc3c2)(Cc2ccc3ccccc3c2)C1=O [8(iv), 1,1′-(4,4′-(5,5-bis(naphthalen-2-ylmethyl)-2,4,6-trioxodihydropyrimidine-1,3(2H,4H)-diyl)bis(butane-4,1-diyl))-diguanidine] | 16 (≈ 25.2 µM) | 16 (≈ 25.2 µM) | (8) | 16 (≈ 25.2 µM) | 32 (≈ 50.4 µM) | (4) | (4) | 133 (≈ 210 µM) | 1 (≈ 1.58 µM) | 8 (≈ 12.6 µM) | 0.25 (≈ 0.394 µM) | 1 (≈ 1.58 µM) | 32 (≈ 50.4 µM) | (4) | 32 (≈ 50.4 µM) | (4) | 32 (≈ 50.4 µM) | (4) | 32 (≈ 50.4 µM) | (4) | selectivity index (EC50/MIC) (K. pneumoniae 50667959): (8); MIC (K. pneumoniae K47-25; K. pneumoniae K47-25, resistant to colistin): 16 µg/mL (≈ 25.2 µM); selectivity index (EC50/MIC) (K. pneumoniae K47-25; RBC EC50 / MIC, K. pneumoniae K47-25, resistant to colistin): (8); selectivity index (EC50/MIC) (K. pneumoniae 50625602): (8); MIC (P. aeruginosa K34-73; K3473, P. aeruginosa K34-73, read-out: Antimicrobial activity (MIC)): 32 µg/mL (≈ 50.4 µM); MIC (A. baumanii K63-58): 32 µg/mL (≈ 50.4 µM); selectivity index (EC50/MIC) (A. baumanii K63-58): (4) |
